According to US10774063B2, “Materials and method for inhibiting replication protein A and uses thereof” (INDIANA UNIVERSITY RESEARCH AND TECHNOLOGY CORPORATION, priority 2014, dated 2020):
pIC50: −log10 of the molar value. Read-outs that look alike come from different tables or passages of the source.

Key:
[1] = Preliminary pharmacokinetic analysis; type: in vivo, mice
[2] = system: A2780 cells; assay: Assessment of synergy via combination index (Chou-Talalay), colony formation; type: cell-based; settings: A2780, at 0.5 or higher fraction of cells affected
Procedure: (§1) Referring now to clonogenic survival assays, cells were plated in a 6 well (100,000 cells/well) or 24 well (25,000 cells/well) plate, incubated for at least 18 hours and then treated with Pt/etoposide and/or RPA inhibitors. After 48 hours of treatment, the cells were re-plated in 10 cm dishes (500-1000 cells/dish) and incubated for 8-10 days to allow colony formation. Plates were then washed with PBS, fixed with glutaraldehyde (Fisher Scientific) and stained with crystal violet (Acros Organics). The colonies were then counted using an Acolyte Synbiosis colony counter, viability determined versus vehicle controls which were plotted versus drug concentration.
Referring now to Assessment of Synergy via Combination Index, in the combination index studies, the A2780 cells were treated with RPA inhibitor and Pt/etoposide alone as well as the combination of both—the inhibitor and the DNA damaging chemotherapeutic agent. The range of treatment was dependent on the IC50 of each inhibitor/drug. If the IC50 was X, then the cells were treated at a range of X/4 to 3X concentration in a colony formation assay. […]

[3] = Safety and tolerability (body weight) in naive NOD/SCID mice; type: in vivo
Procedure: Referring now to in vivo analysis of TDRL-551, non-obese diabetic/severe combined immunodeficient mice (NOD/SCID) were obtained from The Jackson Laboratory. All animal studies were conducted under the guidelines of the NIH and were approved by the Institutional Animal Care and Use Committee of Indiana University School of Medicine. Animals were maintained under pathogen-free conditions and a 12-hour light-dark cycle. The safety and tolerability of TDRL-551 was assessed in naïve NOD/SCID mice. Mice were treated IP with increasing concentrations of TDRL-551 in a formulation consisting of 20% DMSO, 10% Tween 80, 70% PBS. Based on preliminary PK analysis and a half-life of ˜7 hours (data not shown) we administered 3 doses per week for two weeks and measured body weight every other day.

[4] = system: A2780 EOC cell line; assay: Clonogenic survival assay in A2780 cells; type: cell-based; settings: 48 hours treatment, 1-200 μM, read-out: Cellular IC50
Procedure: Referring now to cell culture, A2780 cells and A2780/R cells were purchased from Sigma. All other cell lines were from ATCC and routinely tested for mycoplasma contamination. Cells were maintained in RPMI media supplemented with 10% FBS (Atlanta Biological), penicillin and streptomycin. Cultures were incubated at 37° C. in 5% CO2 and sub-cultured 2-3 times per week.
as §1

[5] = target: full length, heterotrimeric human RPA (fl-RPA) (Homo sapiens (Human), UniProt P27694); assay: EMSA for inhibition of RPA-DNA binding activity (full length RPA)
Procedure: Referring to protein purification, full length, heterotrimeric human RPA (fl-RPA) was expressed in E. coli and purified by a three column procedure as previously described (See Patrick S M and Turchi J, Replication Protein A (RPA) Binding to Duplex Cisplatin-damaged DNA Is Mediated through the Generation of Single-stranded DNA. J Biol Chem 1999; 274:14972-8). The DBD-A/B construct was expressed as a SUMO-His6-RPA^181-432 fusion protein. E. coli BL21 (DE3) cells in log growth were induced for 3 hours with 0.5 mM IPTG at 37° C. The cells were lysed in buffer containing 50 mM Tris pH 7.5, 300 mM NaCl, 10% sucrose, 10 mM imidazole, 25 μg/ml lysozyme, 1 μg/ml leupeptin, 1 μg/ml pepstatin and 0.5 mM PMSF. The lysate was loaded onto a Ni-NTA column washed and then incubated overnight with wash buffer containing 3 μg/ml ULP1 protease to cleave the SUMO tag. The cleaved His6-RPA^181-432 was eluted from the Ni-NTA column with elution buffer containing 350 mM imidazole. The His6-RPA was then further purified on a size exclusion column (SEC) to remove the cleaved SUMO tag fragment. The SEC pool was then concentrated and stored at −80° C.
Referring now to Electrophoretic Mobility Shift Assays (“EMSA”), EMSA reactions (20 μL) were performed with 50 nM fl-RPA and 2.5 nM 5′[^32P]-labeled 34-base DNA in buffer containing 20 mM HEPES (pH 7.0), 1 mM DTT, 0.001% NP-40, 100 mM NaCl, 5 mM MgCl2 and 50 μg/ml bovine serum albumin (BSA). Chemical compounds, either purchased from ChemDiv or synthesized in the laboratory, were suspended in DMSO and titrated as detailed in each figure. The DMSO concentration in the reaction mixture was kept constant at or below 5%. RPA was incubated with inhibitor or DMSO control in reaction buffer for 30 minutes before the addition of DNA. Reactions were incubated for 5 minutes at room temperature and products separated via 6% native polyacrylamide gel electrophoresis. The bound and unbound fractions were then quantified by phosphor-imager analysis using ImageQuant software (Molecular Dynamics, CA) and IC50 values calculated by non-linear regression using SigmPlot (Sysat). For EMSA reactions with RPA DBD-A/B, 150 nM DBD-A/B was used and electrophoresis was performed at 4° C. All other conditions were identical to those described for the full length RPA.

[6] = EMSA, RPA incubated with compounds at 1-125 μM, read-out: In vitro IC50
[7] = compounds titrated at 1-125 μM, read-out: IC50 calculated from EMSA reactions

Sequence of full length, heterotrimeric human RPA (fl-RPA) (P27694 whole entry, the tested form may be a part): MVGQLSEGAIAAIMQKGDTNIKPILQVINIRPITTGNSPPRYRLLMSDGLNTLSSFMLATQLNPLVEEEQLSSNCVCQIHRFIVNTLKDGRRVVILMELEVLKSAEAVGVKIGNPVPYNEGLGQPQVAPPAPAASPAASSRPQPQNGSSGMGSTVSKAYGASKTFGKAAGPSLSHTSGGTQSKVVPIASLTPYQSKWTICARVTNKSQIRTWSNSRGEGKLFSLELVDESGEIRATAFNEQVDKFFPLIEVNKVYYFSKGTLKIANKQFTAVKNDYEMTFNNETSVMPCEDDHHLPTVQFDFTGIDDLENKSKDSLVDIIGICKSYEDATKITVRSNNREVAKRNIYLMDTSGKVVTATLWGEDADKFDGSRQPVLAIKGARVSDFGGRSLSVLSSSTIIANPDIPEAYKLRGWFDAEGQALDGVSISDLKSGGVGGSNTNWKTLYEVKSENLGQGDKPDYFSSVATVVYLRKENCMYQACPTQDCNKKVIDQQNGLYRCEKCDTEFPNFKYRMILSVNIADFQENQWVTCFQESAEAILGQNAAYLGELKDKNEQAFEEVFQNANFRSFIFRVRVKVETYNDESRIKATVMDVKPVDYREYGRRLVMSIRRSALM
Sequence of full length, heterotrimeric human RPA (fl-RPA) (P15927 whole entry partner, the tested form may be a part): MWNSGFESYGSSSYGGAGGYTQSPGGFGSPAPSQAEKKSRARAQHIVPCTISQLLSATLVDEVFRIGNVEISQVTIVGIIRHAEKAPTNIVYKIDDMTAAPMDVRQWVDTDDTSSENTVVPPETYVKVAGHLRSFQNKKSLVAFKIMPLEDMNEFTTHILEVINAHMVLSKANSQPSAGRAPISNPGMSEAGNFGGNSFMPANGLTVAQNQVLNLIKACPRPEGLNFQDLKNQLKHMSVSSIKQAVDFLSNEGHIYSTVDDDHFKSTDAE
Sequence of full length, heterotrimeric human RPA (fl-RPA) (P35244 whole entry partner, the tested form may be a part): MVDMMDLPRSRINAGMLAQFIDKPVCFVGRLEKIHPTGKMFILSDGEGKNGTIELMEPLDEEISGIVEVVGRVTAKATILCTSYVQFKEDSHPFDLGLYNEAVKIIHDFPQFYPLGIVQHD

Row | SMILES | pIC50 [5, 6] | pIC50 [5, 7] | other results
1 | CCOc1ccc2cc(C3CC(c4ccc(I)cc4)=NN3C(=O)CCCC(=O)O)c(Cl)nc2c1 (centres unmarked) |  |  | half-life ([1]; NOD/SCID, mouse, plasma, preliminary PK analysis): ~7 h; plasma concentration achieved ([1]; initial pharmacokinetic analysis): > 20 µM; combination index (CI) with cisplatin [2]: < 1; adverse effects / loss of weight ([3]; co-treatment with carboplatin, up to 200 mg/kg): no adverse effects or loss of weight; body weight change ([3]; intraperitoneal administration up to 200 mg/kg, 3 doses per week for two weeks): no weight loss observed; body weight change ([3]; intraperitoneal, 300 mg/kg): slight decrease in body weight; loss of weight ([3]; intraperitoneal, 300 mg/kg): ≤ 10%; pIC50 ([4]; Homo sapiens): 4.60
2 | CCOc1ccc2cc(C3CC(c4ccc(I)cc4)=NN3c3cccc(C(=O)O)c3)c(Cl)nc2c1 (centres unmarked) [NG-01-02] | 4.12 |  | 
3 | CCOc1ccc2cc(C3CC(c4ccc(I)cc4)=NN3c3ccc(C(=O)O)cc3)c(Cl)nc2c1 (centres unmarked) [NG-01-04] | < 4.00 |  | 
4 | CCOc1ccc2cc(C3CC(c4ccc(I)cc4)=NN3C(=O)CCCCC(=O)O)c(Cl)nc2c1 (centres unmarked) [NG-01-24] | 5.15 |  | 
5 | CCOc1ccc2cc(C3CC(c4ccc(I)cc4)=NN3C(=O)CCCCCC(=O)O)c(Cl)nc2c1 (centres unmarked) [NG-01-25] | 5.00 |  | 
6 | COc1ccc2cc(C3CC(c4ccc(Br)cc4)=NN3C(=O)CCCC(=O)O)c(Cl)nc2c1 (centres unmarked) [TDRL-533] | < 4.30 |  | pIC50 [4]: < 4.30
7 | COc1ccc2cc(C3CC(c4ccc(Br)cc4)=NN3C(=O)CCCCC(=O)O)c(Cl)nc2c1 (centres unmarked) [TDRL-534] | 4.46 |  | 
8 | COc1ccc2cc(C3CC(c4ccc(F)cc4)=NN3C(=O)CCCCC(=O)O)c(Cl)nc2c1 (centres unmarked) [TDRL-539] | < 4.00 |  | 
9 | COc1ccc2cc(C3CC(c4ccc(F)cc4)=NN3C(=O)CCCC(=O)O)c(Cl)nc2c1 (centres unmarked) [TDRL-540] | < 4.00 |  | 
10 | CCOc1ccc2cc(C3CC(c4ccc(Br)cc4)=NN3C(=O)CCCCC(=O)O)c(Cl)nc2c1 (centres unmarked) [TDRL-543] | 4.60 |  | pIC50 [4]: 4.30
11 | CC(C)Oc1ccc2cc(C3CC(c4ccc(Br)cc4)=NN3C(=O)CCCCC(=O)O)c(Cl)nc2c1 (centres unmarked) [TDRL-556] | 4.37 |  | 
12 | CCOc1ccc2cc(C3CC(c4ccc(OC(F)(F)F)cc4)=NN3C(=O)CCCCC(=O)O)c(Cl)nc2c1 (centres unmarked) [TDRL-557] | 4.52 |  | 
13 | CCOc1ccc2cc(C3CC(c4ccc(Br)nc4)=NN3C(=O)CCC(=O)O)c(Cl)nc2c1 (centres unmarked) [TDRL-617] | < 4.00 |  | 
14 | CCOc1ccc2cc(C3CC(c4cccc(I)c4)=NN3C(=O)CCCCC(=O)O)c(Cl)nc2c1 (centres unmarked) [TDRL-652] | 4.82 |  | 
15 | COc1ccc(C2CC(c3ccccc3)=NN2C(=O)CCCC(=O)O)cc1OC (centres unmarked) [a] |  | < 4.00 | 
16 | COc1ccc(C2CC(c3ccc(C)cc3)=NN2C(=O)CCCC(=O)O)cc1OC (centres unmarked) [b] |  | < 4.00 | 
17 | COc1ccc(C2=NN(C(=O)CCCC(=O)O)C(c3ccccc3OC)C2)cc1 (centres unmarked) [c] |  | < 4.00 | 
18 | CCOc1ccc2cc(C3CC(c4ccc(Br)cc4)=NN3C(=O)CCCC(=O)O)c(Cl)nc2c1 (centres unmarked) [d] |  | 4.60 | 
19 | CCOc1ccc2cc(C3CC(c4ccc(C)cc4)=NN3C(=O)CCC(=O)O)c(Cl)nc2c1 (centres unmarked) [e] |  | 4.10 | 
20 | COc1ccc2cc(C3CC(c4ccc(Cl)cc4)=NN3C(=O)CCC(=O)O)c(Cl)nc2c1 (centres unmarked) [f] |  | 4.12 | 
21 | COc1ccc(C2=NN(C(=O)CCC(=O)O)C(c3cc4ccc(OC)cc4nc3Cl)C2)cc1 (centres unmarked) [g] |  | < 4.00 | 
22 | COc1ccc2cc(C3CC(c4ccc(OC)c(OC)c4)=NN3C(=O)CCC(=O)O)c(Cl)nc2c1 (centres unmarked) [h] |  | < 4.00 | 
23 | COc1ccc2cc(C3CC(c4ccc(C)cc4)=NN3C(=O)CCCC(=O)O)c(Cl)nc2c1 (centres unmarked) [i] |  | < 4.00 | 
24 | COc1ccc2cc(C3CC(c4ccc(Cl)cc4)=NN3C(=O)CCCC(=O)O)c(Cl)nc2c1 (centres unmarked) [j] |  | 4.22 | 
25 | COc1ccc2cc(C3CC(c4ccc(OC)c(OC)c4)=NN3C(=O)CCCC(=O)O)c(Cl)nc2c1 (centres unmarked) [k] |  | < 4.00 | 
26 | O=C(O)CCCC(=O)N1N=C(c2ccccc2)CC1c1cc2cc3c(cc2nc1Cl)OCCO3 (centres unmarked) [l] |  | < 4.00 | 
